Values quoted from earlier work, collected in article PMC7657096 (Medical Mycology, 2020).
Where “and” joins values, the source holds several entries; their conditions need not be identical. Equal entries are not always repeated. Where two headings read alike, the source gives them in different places.

How the values were obtained:
onychomycosis [1] = conditions: after 10 months following weekly application for 9 months
onychomycosis [2] = conditions: after 48 weeks following daily application for 48 weeks; two values
onychomycosis [3] = conditions: topical, applied for 52 weeks; two values
onychomycosis [4] = tested on: onychomycosis
onychomycosis [5] = conditions: topical solution applied daily for either 24 or 48 weeks
onychomycosis [6] = conditions: after 12 or 24 weeks of oral terbinafine treatment

For `CCC(C)(C)c1ccc(CC(C)CN2C[C@@H](C)O[C@@H](C)C2)cc1` (stereo partly shown) [amorolfine], the “mycological cure (negative culture and negative microscopy)” value (onychomycosis [1]) is listed as 8%.

In the case of `Cc1cc(C2CCCCC2)n(O)c(=O)c1` [ciclopirox], the “mycological cure (negative culture and negative microscopy)” value (onychomycosis [2]) is listed as 29% and 36%.

In the case of `C=C1CCN([C@H](C)[C@](O)(Cn2cncn2)c2ccc(F)cc2F)CC1` [efinaconazole], the mycological cure (onychomycosis [3]) is listed as 53.4% and 55.2%.

In the case of `OB1OCc2cc(F)ccc21` [tavaborole], the mycological cure (onychomycosis [4]; topical, applied for 52 weeks) is listed as 31.1% and the negative culture (onychomycosis [4]; two phase III studies, daily topical treatment for 48 weeks, ref (57)) is listed as 87.0% and 85.4%.

In the case of `CN(C/C=C/C#CC(C)(C)C)Cc1cccc2ccccc12` [terbinafine], the mycological cure (onychomycosis [5]) is given as 12.7–18.8% and the “trial participants with negative culture after 24 weeks (168 days)” value (onychomycosis [6]) is given as “approximately 80%”.
